From patent US10961238B2, “Modulators of hedgehog (Hh) signaling pathway” (E-THERAPEUTICS PLC, priority 2016, dated 2021)

The molecules below were run on C3H10T1/2 cells (assay: C3H assay: differentiation of C3H10T1/2 cells by mSHH, measurement of alkaline phosphatase). Settings: Mus musculus, C3H 10T1/2; C3H10T1/2 cells stimulated with mSHH for 72 hours; alkaline phosphatase activity; read-out: IC50 Ranges.
Assay type: cell-based, mouse

Row | SMILES | IC50
1 | CCN(CC)CC(C)(C)CN1CC(S(=O)(=O)N2CCC(c3c[nH]c4ncccc34)CC2)C1 [Compound 145, N,N-diethyl-2,2-dimethyl-3-[3-[4-(1H-pyrrolo[2,3-b]pyridin-3-yl)piperidin-1-yl]sulfonylaze-tidin-1-yl]propan-1-amine] | 1000 to 10000 nM
2 | Cc1noc(C)c1NC(=O)[C@H]1C[C@@H](S(=O)(=O)N2CCC(c3ccncc3)CC2)C1 [Compound 295, cis-N-(3,5-dimethyl-1,2-oxazol-4-yl)-3-(4-pyridin-4-ylpiperidin-1-yl) sulfonylcyclobutane-1-carboxamide] | 1000 to 10000 nM
3 | CC(C)(CN1CCOCC1)CN1CC(S(=O)(=O)N2CCC(c3c[nH]c4ncccc34)CC2)C1 [Compound 146] | 1000 to 10000 nM
4 | COc1cccc(N(C)C(=O)N2CC(S(=O)(=O)N3CCC(c4c[nH]c5ncccc45)CC3)C2)c1 [Compound 279, N-(3-methoxyphenyl)-N-methyl-3-[4-(1H-pyrrolo [2,3-b]pyridin-3-yl)piperidin-1-yl]sulfonylaze-tidine-1-carboxamide] | 1000 to 10000 nM
5 | CN1CCN(CCCOC(=O)N2CC(S(=O)(=O)N3CCC(c4c[nH]c5ncccc45)CC3)C2)CC1 [Compound 53, 3-(4-methylpiperazin-1-yl)propyl 3-[4-(1H-pyrrolo [2,3-b]pyridin-3-yl)piperidin-1-yl]sulfonylaze-tidine-1-carboxylate] | 1000 to 10000 nM
6 | Cc1cc(Cl)ccc1C1CCN(S(=O)(=O)C2CN(C(=O)[C@@H]3CCCN3C)C2)CC1 [Compound 318, [3-[4-(4-chloro-2-methylphenyl)piperidin-1-yl]sulfonylaze-tidin-1-yl]-[(2S)-1-methylpyrrolidin-2-yl]methanone] | 1000 to 10000 nM
7 | O=S(=O)(C1CCC1)N1CCC(c2c[nH]c3ncccc23)CC1 [Compound 287, 3-(1-cyclobutylsulfonylpiperidin-4-yl)-1H-pyrrolo[2,3-b]pyridine] | 1000 to 10000 nM
8 | C[C@@H](C(=O)N1CC(S(=O)(=O)N2CCC(c3ccccc3)CC2)C1)N(C)C [Compound 307, 2-(dimethylamino)-1-[3-(4-phenyl-piperidin-1-yl)sulfonylaze-tidin-1-yl]propan-1-one] | 1000 to 10000 nM
9 | O=S(=O)(C1CN(C2CCCC2)C1)N1CCC(c2c[nH]c3ncccc23)CC1 [Compound 158] | 1000 to 10000 nM
10 | Cc1noc(C)c1NC(=O)N1CC(S(=O)(=O)N2CCC(c3cnc4occc4c3)CC2)C1 [Compound 37, N-(3,5-dimethyl-1,2-oxazol-4-yl)-3-(4-furo[2,3-b]pyridin-5-ylpiperidin-1-yl)sulfonylaze-tidine-1-carboxamide] | 1000 to 10000 nM
11 | Cc1noc(C)c1NC(=O)[C@H]1C[C@H](S(=O)(=O)N2CCC(c3c[nH]c4ncccc34)CC2)C1 [Compound 310, trans-N-(3,5-dimethyl-1,2-oxazol-4-yl)-3-[4-(1H-pyrrolo [2,3-b]pyridin-3-yl)piperidin-1-yl]sulfonylcycl obutane-1-carboxamide] | 100 to 1000 nM
12 | O=C(NC1(C(F)(F)F)CC1)N1CC(S(=O)(=O)N2CCC(c3nc4ccccc4[nH]3)CC2)C1 [Compound 300, 3-[4-(1H-benzimidazol-2-yl)piperidin-1-yl]sulfonyl-N-[1-(trifluoromethyl)cyclopropyl] azetidine-1-carboxamide] | 1000 to 10000 nM
13 | Cc1noc(C)c1NC(=O)N1CC(S(=O)(=O)N2CCC(c3cn(C)c4nccnc34)CC2)C1 [Compound 42, N-(3,5-dimethyl-1,2-oxazol-4-yl)-3-[4-(5-methylpyrrolo [2,3-b]pyrazin-7-yl)piperidin-1-yl]sulfonylaze-tidine-1-carboxamide] | 1000 to 10000 nM
14 | COc1cnc2[nH]cc(C3CCN(S(=O)(=O)C4CN(C(=O)OC(C)(C)C)C4)CC3)c2c1 [Compound 123, tert-butyl 3-[4-(5-methoxy-1H-pyrrolo[2,3-b]pyridin-3-yl)piperidin-1-yl]sulfonylaze-tidine-1-carboxylate] | 100 to 1000 nM
15 | O=C(OC1CCCCC1)N1CC(S(=O)(=O)N2CCC(c3cnc4occc4c3)CC2)C1 [Compound 38, cyclohexyl 3-(4-furo[2,3-b]pyridin-5-ylpiperidin-1-yl)sulfonylaze-tidine-1-carboxylate] | 100 to 1000 nM
16 | CC(C)(C)OC(=O)N1CC(S(=O)(=O)N2CCC(c3cnc4ccccn34)CC2)C1 [Compound 100, tert-butyl 3-(4-imidazo[1,2-a]pyridin-3-ylpiperidin-1-yl)sulfonylaze-tidine-1-carboxylate] | 100 to 1000 nM

Further lines, results first:

Row | IC50 | SMILES
17 | 10 to 100 nM | Cc1c(F)cccc1NC(=O)N1CC(S(=O)(=O)N2CCC(c3c[nH]c4ncccc34)CC2)C1 [Compound 363, N-(3-fluoro-2-methylphenyl)-3-[4-(1H-pyrrolo[2,3-b]pyridin-3-yl)piperidin-1-yl]sulfonylaze-tidine-1-carboxamide]
18 | 10 to 100 nM | CC(C)(C)OC(=O)N1CC(S(=O)(=O)N2CCC(c3c[nH]c4ccccc34)CC2)C1 [Compound 125, tert-butyl 3-[4-(1H-indol-3-yl)piperidin-1-yl]sulfonylaze-tidine-1-carboxylate]
19 | 100 to 1000 nM | O=C(c1ccccn1)N1CC(S(=O)(=O)N2CCC(c3c[nH]c4ncccc34)CC2)C1 [Compound 192, pyridin-2-yl-[3-[4-(1H-pyrrolo[2,3-b]pyridin-3-yl)piperidin-1-yl]sulfonylaze-tidin-1-yl]methanone]
20 | 100 to 1000 nM | O=C(OC1CCNCC1)N1CC(S(=O)(=O)N2CCC(c3c[nH]c4ncccc34)CC2)C1 [Compound 210, piperidin-4-yl 3-[4-(1H-pyrrolo[2,3-b]pyridin-3-yl)piperidin-1-yl]sulfonylaze-tidine-1-carboxylate]
21 | 10 to 100 nM | CC(C)(C)OC(=O)N[C@H]1C[C@@H](S(=O)(=O)N2CCC(c3c[nH]c4ncccc34)CC2)C1 [Compound 358, cis-tert-butyl-N-[3-[[4-(1H-pyrrolo[2,3-b]pyridin-3-yl)-1-piperidyl]sulfonyl]cyclobutyl]carbamate]
22 | 10 to 100 nM | CC(C)(C)C(=O)CN1CC(S(=O)(=O)N2CCC(c3coc4cccnc34)CC2)C1 [Compound 376, 1-[3-(4-furo[3,2-b]pyridin-3-ylpiperidin-1-yl)sulfonylazetidin-1-yl]-3,3-dimethylbutan-2-one]
23 | 100 to 1000 nM | O=C(N1CCOCC1)N1CC(S(=O)(=O)N2CCC(c3coc4cccnc34)CC2)C1 [Compound 137, [3-(4-furo [3,2-b]pyridin-3-ylpiperidin-1-yl)sulfonylaze-tidin-1-yl]-morpholin-4-ylmethanone]
24 | 100 to 1000 nM | CC(C)C(=O)N1CC(S(=O)(=O)N2CCC(c3c[nH]c4ncccc34)CC2)C1 [Compound 194, 2-methyl-1-[3-[4-(1H-pyrrolo[2,3-b]pyridin-3-yl)piperidin-1-yl]sulfonylaze-tidin-1-yl]propan-1-one]
25 | 10 to 100 nM | C[C@](O)(CC(=O)N1CC(S(=O)(=O)N2CCC(c3c[nH]c4ncccc34)CC2)C1)C(F)(F)F [Compound 405, 4,4,4-trifluoro-3-hydroxy-3-methyl-1-[3-[4-(1H-pyrrolo[2,3-b]pyridin-3-yl)piperidin-1-yl]sulfonylaze-tidin-1-yl]butan-1-one]
26 | 10 to 100 nM | Cc1noc(C)c1CC(=O)N1CC(S(=O)(=O)N2CCC(c3c[nH]c4ncccc34)CC2)C1 [Compound 63, 2-(3,5-dimethyl-1,2-oxazol-4-yl)-1-[3-[4-(1H-pyrrolo[2,3-b]pyridin-3-yl)piperidin-1-yl]sulfonylaze-tidin-1-yl]ethanone]
27 | 10 to 100 nM | CC(C)(C)OC(=O)N1CC(S(=O)(=O)N2CCC(c3c[nH]c4cccnc34)CC2)C1 [Compound 49, tert-butyl 3-[4-(1H-pyrrolo[3,2-b]pyridin-3-yl)piperidin-1-yl]sulfonylaze-tidine-1-carboxylate]
28 | 100 to 1000 nM | CC(C)(C)OC(=O)N1CCC(S(=O)(=O)N2CC=C(c3coc4cccnc34)CC2)CC1 [Compound 232, tert-butyl 4-[(4-furo[3,2-b]pyridin-3-yl-3,6-dihydro-2H-pyridin-1-yl)sulfonyl]pip eridine-1-carboxylate]
29 | 100 to 1000 nM | CN(C)CC(C)(C)OC(=O)N1CC(S(=O)(=O)N2CCC(c3ccncc3)CC2)C1 [Compound 144, [1-(dimethylamino)-2-methylpropan-2-yl]3-(4-pyridin-4-ylpiperidin-1-yl)sulfonylaze-tidine-1-carboxylate]
30 | 10 to 100 nM | CC(C)N(CC(=O)N1CC(S(=O)(=O)N2CCC(c3c[nH]c4ncccc34)CC2)C1)C(C)C [Compound 326, 2-[di(propan-2-yl)amino]-1-[3-[4-(1H-pyrrolo [2,3-b]pyridin-3-yl)piperidin-1-yl]sulfonylaze-tidin-1-yl]ethanone]
31 | 100 to 1000 nM | CCN(CC)C(=O)N1CC(S(=O)(=O)N2CCC(c3c[nH]c4ncccc34)CC2)C1 [Compound 82, N,N-diethyl-3-[4-(1H-pyrrolo[2,3-b]pyridin-3-yl)piperidin-1-yl]sulfonylaze-tidine-1-carboxamide]
32 | 10 to 100 nM | CC(C)(C)COC(=O)N1CC(S(=O)(=O)N2CCC(c3coc4cccnc34)CC2)C1 [Compound 140, 2,2-dimethylpropyl 3-(4-furo[3,2-b]pyridin-3-ylpiperidin-1-yl)sulfonylaze-tidine-1-carboxylate]
33 | 10 to 100 nM | O=S(=O)(C1CN(c2ncccc2F)C1)N1CCC(c2c[nH]c3ncccc23)CC1 [Compound 253, 3-[1-[1-(3-fluoropyridin-2-yl)azetidin-3-yl]sulfonylpiper-idin-4-yl]-1H-pyrrolo[2,3-b]pyridine]
34 | 10 to 100 nM | O=S(=O)(C1CN(c2nc3ccccc3o2)C1)N1CCC(c2c[nH]c3ncccc23)CC1 [Compound 338, 2-[3-[4-(1H-pyrrolo[2,3-b]pyridin-3-yl)piperidin-1-yl]sulfonylaze-tidin-1-yl]-1,3-benzoxazole]
35 | 10 to 100 nM | Cc1noc(C)c1CCN1CC(S(=O)(=O)N2CCC(c3c[nH]c4ncccc34)CC2)C1 [Compound 56, 3,5-Dimethyl-4-[2-[3-[[4-(1H-pyrrolo[2,3-b]pyridin-3-yl)-1-piperidyl]sulfonyl]azetidin-1-yl]ethyl]isoxazole]
36 | 10 to 100 nM | Cc1ccnc(N2CC(S(=O)(=O)N3CCC(c4c[nH]c5ncccc45)CC3)C2)c1 [Compound 257, 3-[1-[1-(4-methylpyridin-2-yl)azetidin-3-yl]sulfonylpiper-idin-4-yl]-1H-pyrrolo[2,3-b]pyridine]
